The values that follow come from patent US11306071B2, “Heterocyclic compounds as adenosine antagonists” (Nuvation Bio Inc., priority 2019, dated 2022).

In assay [1] the target is adenosine A1 (human) membrane (Homo sapiens (Human), UniProt P30542). Nature of the assay: A1 adenosine receptor radioligand binding assay ([3H] DPCPX). The note with it: 200 nM compound; radioligand [3H] DPCPX 1 nM. Here is the method: A second A1 adenosine receptor radioligand binding assay protocol was used. The protocol used adenosine A1 (human) membrane (PerkinElmer ES-010-M400UA) at a concentration of 2.5 μg/well/100 μl and the radioligand [3H] DPCPX (Cat No. PerkinElmer-NET974250UC) at a final concentration of 1 nM. Testing compounds were tested at a final concentration of 200 nM. CGS-15943, the reference compound, was tested in an 8-point 4-fold serial dilution, starting at a top concentration of 1 μM. 1 μl of compounds/high control/low control was transferred to the assay plate according to a plate map, followed by 100 μl of membrane stocks and 100 μl of radioligand, in assay buffer (25 mM HEPES, 5 mM MgCl2, 1 mM CaCl2, 100 mM NaCl, pH 7.4). The plate was sealed and incubated at RT for 1 hour. Unifilter-96 GF/C filter plates (Perkin Elmer Cat #6005174) were soaked with 50 μl of 0.3% PEI per well for at least 0.5 hour at room temperature. When the binding assays were completed, the reaction mixtures were filtered through GF/C plates using Perkin Elmer Filtermate Harvester, and each plate washed 4 times with cold wash buffer (25 mM HEPES, 5 mM MgCl2, 1 mM CaCl2, 100 mM NaCl, pH 7.4). The filter plates were dried for 1 hour at 50 degrees. After drying, the bottom of the filter plate wells was sealed, 50 μl of Perkin Elmer Microscint 20 cocktail was added, and the top of the filter plate was sealed. ^3H trapped on the filter was counted using Perkin Elmer MicroBeta2 Reader. The data were analyzed with GraphPad Prism 5 to obtain binding IC50 values for the reference compound. The “Inhibition [% Control]” was calculated using the equation: % Inh=(1-Background subtracted Assay value/Background subtracted HC value)*100, where HC is high control.
Chain of adenosine A1 (human) membrane (P30542 whole entry): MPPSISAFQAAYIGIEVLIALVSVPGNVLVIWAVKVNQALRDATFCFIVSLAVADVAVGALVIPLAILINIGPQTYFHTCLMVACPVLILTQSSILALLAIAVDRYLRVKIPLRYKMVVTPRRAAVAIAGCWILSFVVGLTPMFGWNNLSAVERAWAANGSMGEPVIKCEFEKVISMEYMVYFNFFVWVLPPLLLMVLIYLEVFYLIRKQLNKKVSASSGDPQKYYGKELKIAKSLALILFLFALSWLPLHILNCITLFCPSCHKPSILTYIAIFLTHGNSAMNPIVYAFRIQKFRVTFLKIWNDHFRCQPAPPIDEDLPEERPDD

The target of assay [2] is HEK-293 cells expressing human recombinant adenosine A2A receptor (Homo sapiens (Human), UniProt P29274). Nature of the assay: cAMP assay (Assay 2), A2A receptor. The format is cell-based. Here is the method:
The functional activity of compounds was tested using Assay 2, below, to detect the presence of cAMP. Assay 1 is an alternative assay for this purpose. Activation of G-protein coupled receptors (such as A2A) results in activation of adenylyl cyclase which converts ATP into cAMP which is used as a downstream signaling molecule. Therefore, molecules which act as GPCR (or specifically A2A receptor) antagonists cause a decrease in intracellular cAMP concentration.
Assay 2 (Table B2): This assay used HEK-293 cells expressing human recombinant adenosine A2A receptor (or, alternatively, A1 receptor) that were grown prior to the test in media without antibiotic. 100 nL of test articles at 100x of final concentration were transferred to assay plate by Echo. Cells were washed twice with 5 mL of PBS and 10 μL of cells were mixed with 5 mL PBS. After aspirating the PBS and adding 1.5 mL versine, cells were incubated at 37° C. for 2-5 min. After centrifugation, 4 mL of medium was added and adjusted cell density to 5,000 cells/well with Stimulation Buffer. 10 μL of cells were aliquoted to the assay plate, centrifuged at 1000 rpm for 1 minute, and incubated for 60 minutes at room temperature. 5 μL 4× Eu-cAMP tracer solution and 5 μL 4× Ulight™-anti-cAMP solution were added to assay plate, followed by centrifugation and 60-minute incubation at room temperature. Plates were read on EnVision.

Assay [3] addresses adenosine A2a (human) membrane (Homo sapiens (Human), UniProt P29274). Put plainly: A2A adenosine receptor radioligand binding assay ([3H] CGS-21680). The following applies: radioligand [3H] CGS-21680 6 nM. On the procedure:
A second A2A adenosine receptor radioligand binding assay protocol was used. The protocol used adenosine A2a (human) membrane (PerkinElmer RBHA2AM400UA) at a concentration of 5 μg/well/100 μl and the radioligand [3H] CGS-21680 (Cat No. PerkinElmer-NET1021250UC) at a final concentration of 6 nM. Testing compounds were diluted with DMSO to make 8-point 4-fold serial dilution, starting at 0.2 mM. CGS-15943 was the reference compound. 1 μl of compounds/high control/low control was transferred to the assay plate according to a plate map, followed by 100 μl of membrane stocks and 100 μl of radioligand, in assay buffer (50 mM Tris-HCl, 10 mM MgCl2, 1 mM EDTA, pH 7.4). The plate was sealed and incubated at RT for 2 hours. Unifilter-96 GF/C filter plates (Perkin Elmer Cat #6005174) were soaked with 50 μl of 0.3% PEI per well for at least 0.5 hour at room temperature. When the binding assays were completed, the reaction mixtures were filtered through GF/C plates using Perkin Elmer Filtermate Harvester, and each plate washed 4 times with cold wash buffer (50 mM Tris-HCl, 154 mM NaCl, pH 7.4). The filter plates were dried for 1 hour at 50 degrees. After drying, the bottom of the filter plate wells was sealed, 50 μl of Perkin Elmer Microscint 20 cocktail was added, and the top of the filter plate was sealed. ^3H trapped on the filter was counted using Perkin Elmer MicroBeta2 Reader. The data were analyzed with GraphPad Prism 5 to obtain binding IC50 values. The “Inhibition [% Control]” was calculated using the equation: % Inh=(1-Background subtracted Assay value/Background subtracted HC value)*100, where HC is high control.

Structures are written as SMILES.

Chain of HEK-293 cells expressing human recombinant adenosine A2A receptor (P29274 whole entry): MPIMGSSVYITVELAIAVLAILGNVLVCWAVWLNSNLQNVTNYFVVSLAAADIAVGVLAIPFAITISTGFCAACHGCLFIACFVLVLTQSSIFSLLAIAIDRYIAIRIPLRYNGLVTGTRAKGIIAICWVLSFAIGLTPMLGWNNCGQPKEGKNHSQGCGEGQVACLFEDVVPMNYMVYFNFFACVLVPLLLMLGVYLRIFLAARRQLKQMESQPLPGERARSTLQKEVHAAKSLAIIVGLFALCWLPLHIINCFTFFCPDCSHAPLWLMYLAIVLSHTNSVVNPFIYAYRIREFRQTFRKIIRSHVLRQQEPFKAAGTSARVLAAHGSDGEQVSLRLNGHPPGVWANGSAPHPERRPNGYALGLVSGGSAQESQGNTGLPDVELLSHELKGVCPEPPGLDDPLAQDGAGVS
Chain of adenosine A2a (human) membrane (P29274 whole entry): as above

A word on the inhibition: it is the percentage by which the read-out fell short of the control. Read a low inhibition as little suppression. As a reminder, the IC50 is the concentration that inhibits the measured activity by half. Compound `Cc1c(C#N)cccc1-c1nc(N)cnc1-c1cc(Cl)c2ncccc2c1` [2-2, 3-(6-amino-3-(8-chloroquinolin-6-yl)pyrazin-2-yl)-2-methylbenzonitrile] returned an inhibition at 0.2 µM in assay [1] of 30%. In assay [2], the IC50 turned out to be 327 nM.

`CC(NC(=O)c1nc(-c2cc(Cl)c3ncccc3c2)c(-c2ccn(C)n2)nc1N)c1cccc(C#N)n1` (stereo not shown) [Compound No. 99, 3-amino-6-(8-chloroquinolin-6-yl)-N-(1-(6-cyanopyridin-2-yl)ethyl)-5-(1-methyl-1H-pyrazol-3-yl)pyrazine-2-carboxamide]: in assay [2], the half-inhibitory concentration (IC50) came to 72 nM.

Consider `CC(NC(=O)c1nc(-c2ccc3ncccc3c2)c(-c2ccccc2)nc1N)c1cccc(C#N)n1` (stereo not shown) [Compound No. 111, 3-amino-N-(1-(6-cyanopyridin-2-yl)ethyl)-5-phenyl-6-(quinolin-6-yl)pyrazine-2-carboxamide], for which the IC50 in assay [3] worked out at 3.9 nM. For the same compound, at 0.2 µM the inhibition in assay [1] was 92%.

In assay [3], `C[C@@H](NC(=O)c1nc(-c2cc(Cl)c3[nH]ncc3c2)c(-c2ccn(C)n2)nc1N)c1ccccn1` [Compound No. 112, (R)-3-amino-6-(7-chloro-1H-indazol-5-yl)-5-(1-methyl-1H-pyrazol-3-yl)-N-(1-(pyridin-2-yl)ethyl)pyrazine-2-carboxamide] gave an IC50 of 1.6 nM. Further, the inhibition at 0.2 µM in assay [1] was determined as 77%.

Consider `C[C@@H](NC(=O)c1nc(-c2cc(Cl)c3ncccc3c2)c(-c2ccccc2)nc1N)c1ccccn1` [Compound No. 113, (R)-3-amino-6-(8-chloroquinolin-6-yl)-5-phenyl-N-(1-(pyridin-2-yl)ethyl)pyrazine-2-carboxamide], for which the IC50 in assay [3] stood at 4.7 nM. Further, the inhibition at 0.2 µM in assay [1] stood at 58%.

The compound `CC(NC(=O)c1nc(-c2cc(Cl)c3ncccc3c2)c(-c2ccccc2)nc1N)c1cccc(C#N)n1` (stereo not shown) [Compound No. 114, 3-amino-6-(8-chloroquinolin-6-yl)-N-(1-(6-cyanopyridin-2-yl)ethyl)-5-phenylpyrazine-2-carboxamide] gave an IC50 in assay [3] of 3.5 nM. The inhibition at 0.2 µM in assay [1] is 95%.

In the case of `C[C@@H](NC(=O)c1nc(-c2ccc3ncccc3c2)c(-c2ccccc2)nc1N)c1cccc(C#N)n1` [Compound No. 115, (R)-3-amino-N-(1-(6-cyanopyridin-2-yl)ethyl)-5-phenyl-6-(quinolin-6-yl)pyrazine-2-carboxamide], the IC50 in assay [3] is 64 nM. The same compound came in with an inhibition at 0.2 µM in assay [1] of 74%.

In assay [3], `C[C@H](NC(=O)c1nc(-c2ccc3ncccc3c2)c(-c2ccccc2)nc1N)c1cccc(C#N)n1` [Compound No. 116, (S)-3-amino-N-(1-(6-cyanopyridin-2-yl)ethyl)-5-phenyl-6-(quinolin-6-yl)pyrazine-2-carboxamide] came in with an IC50 of 5.4 nM. For the same compound, testing at 0.2 µM in assay [1] gave an inhibition of 98%.

Compound `C[C@@H](NC(=O)c1nc(-c2ccc3ncccc3c2)c(-c2cccc(C#N)c2)nc1N)c1cccc(C#N)n1` [Compound No. 117, (R)-3-amino-5-(3-cyanophenyl)-N-(1-(6-cyanopyridin-2-yl)ethyl)-6-(quinolin-6-yl)pyrazine-2-carboxamide] yielded an IC50 in assay [3] of 269 nM. The compound further had an inhibition at 0.2 µM in assay [1] of 56%.

In assay [3], `C[C@H](NC(=O)c1nc(-c2ccc3ncccc3c2)c(-c2cccc(C#N)c2)nc1N)c1cccc(C#N)n1` [Compound No. 118, (S)-3-amino-5-(3-cyanophenyl)-N-(1-(6-cyanopyridin-2-yl)ethyl)-6-(quinolin-6-yl)pyrazine-2-carboxamide] had a concentration for half-maximal inhibition (IC50) of 16 nM. Besides, in assay [1], the inhibition at 0.2 µM stood at 92%.

`CC(NC(=O)c1nc(-c2cc(Cl)c3ncccc3c2)c(-c2ccccc2)nc1N)c1ccccn1` (stereo not shown) [Compound No. 119, 3-amino-6-(8-chloroquinolin-6-yl)-5-phenyl-N-(1-(pyridin-2-yl)ethyl)pyrazine-2-carboxamide] registered an IC50 in assay [3] of 12 nM. Besides, the “A1 binding inhibition at 200 nM (%)” value in assay [1] worked out at 92%.

In assay [3], `CC(NC(=O)c1nc(-c2ccc3ncccc3c2)c(-c2ccccc2)nc1N)c1ncccn1` (stereo not shown) [Compound No. 120, 3-amino-5-phenyl-N-(1-(pyrimidin-2-yl)ethyl)-6-(quinolin-6-yl)pyrazine-2-carboxamide] had a half-inhibitory concentration (IC50) of 6.8 nM. This compound came in with an inhibition at 0.2 µM in assay [1] of 45%.

The compound `C[C@@H](NC(=O)c1nc(-c2cc(Cl)c3ncccc3c2)c(-c2ccccc2)nc1N)c1cccc(C#N)n1` [Compound No. 121, (R)-3-amino-6-(8-chloroquinolin-6-yl)-N-(1-(6-cyanopyridin-2-yl)ethyl)-5-phenylpyrazine-2-carboxamide] registered an IC50 in assay [3] of 1.1 nM. The inhibition at 0.2 µM in assay [1] is 80%.

`C[C@@H](NC(=O)c1nc(-c2cc(Cl)c3ncccc3c2)c(-c2ccccc2)nc1N)c1ccccn1` [Compound No. 123, (R)-3-amino-6-(8-chloroquinolin-6-yl)-5-phenyl-N-(1-(pyridin-2-yl)ethyl)pyrazine-2-carboxamide] came in with an IC50 in assay [3] of 1.1 nM. Moreover, in assay [1], the “A1 binding inhibition at 200 nM (%)” value was 89%.

With `CC(NC(=O)c1nc(-c2ccc3ncccc3c2)c(-c2ccn(C)n2)nc1N)c1cccc(C#N)n1` (stereo not shown) [Compound No. 127, 3-amino-N-(1-(6-cyanopyridin-2-yl)ethyl)-5-(1-methyl-1H-pyrazol-3-yl)-6-(quinolin-6-yl)pyrazine-2-carboxamide], the 50% inhibitory concentration (IC50) in assay [3] was 3.9 nM. Moreover, 0.2 µM produced 84% inhibition in assay [1].

The compound `C[C@H](NC(=O)c1nc(-c2ccc3ncccc3c2)c(-c2ccccc2)nc1N)c1cnccn1` [Compound No. 129, (S)-3-amino-5-phenyl-N-(1-(pyrazin-2-yl)ethyl)-6-(quinolin-6-yl)pyrazine-2-carboxamide] yielded an IC50 in assay [3] of 3.9 nM. The same compound had an inhibition at 0.2 µM in assay [1] of 61%.

In turn, `CC(NC(=O)c1nc(-c2ccc3ncccc3c2)c(-c2ccn(C)n2)nc1N)c1ccccn1` (stereo not shown) [Compound No. 459, 3-amino-5-(1-methyl-1H-pyrazol-3-yl)-N-(1-(pyridin-2-yl)ethyl)-6-(quinolin-6-yl)pyrazine-2-carboxamide] returned a concentration for half-maximal inhibition (IC50) in assay [3] of 4.7 nM.

`CC(NC(=O)c1nc(-c2ccc3ncccc3c2)c(-c2ccn(C)n2)nc1N)c1ncccn1` (stereo not shown) [Compound No. 460, 3-amino-5-(1-methyl-1H-pyrazol-3-yl)-N-(1-(pyrimidin-2-yl)ethyl)-6-(quinolin-6-yl)pyrazine-2-carboxamide] yielded an IC50 in assay [3] of 7.3 nM.

Regarding `CCN(CC)CCNc1nc(-c2ccc3ncccc3c2)c(-c2ccccc2)nc1N` [compound 1, N2-(2-(diethylamino)ethyl)-5-phenyl-6-(quinolin-6-yl)pyrazine-2,3-diamine], the 50% inhibitory concentration (IC50) in assay [2] was determined as 262 nM.
